According to patent publication US11919908B2, “Substituted pyrrolo[2,3-d]pyrimidine compounds as JAK2 V617F inhibitors” (Incyte Corporation, priority 2020, dated 2024):

Assays:
[1] = biological target: T1, pseudo-kinase domain (JH2) of human V617F mutant JAK2 (Homo sapiens, UniProt O60674, F794H/V617F/W659A/W777A); assay: JAK2 LanthaScreen JH2-V617F Binding Assay; conditions: 50 nM Fluorescent JAK2-JH2 Tracer, 1 hour at 25° C.
T1 construct: pseudo-kinase domain (JH2, amino-acids 536-812 with 3 surface mutations W659A, W777A, F794H); His (C); purchased BPS Bioscience 79498; host or cells: baculovirus expression system
T1 sequence (O60674 536-812 V617F/W659A/W777A/F794H): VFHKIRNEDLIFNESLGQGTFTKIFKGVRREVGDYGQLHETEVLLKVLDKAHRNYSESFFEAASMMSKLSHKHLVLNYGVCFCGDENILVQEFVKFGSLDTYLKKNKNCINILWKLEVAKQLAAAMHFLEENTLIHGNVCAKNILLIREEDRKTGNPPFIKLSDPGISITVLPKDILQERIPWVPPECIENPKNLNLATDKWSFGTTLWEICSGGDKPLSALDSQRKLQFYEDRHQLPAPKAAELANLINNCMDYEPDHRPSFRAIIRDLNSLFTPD
Summary of the method: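 Biotinylated His-Avi-tagged JH2 domain (aa 536-812, V617F plus 3 surface mutations; 0.26 nM), baculovirus-expressed, incubated 1 hour at 25° C with compound, 50 nM fluorescent JH2 tracer and 0.25 nM streptavidin-Tb in pH 7.5 Tris buffer. Tracer displacement read by LanthaScreen TR-FRET; non-specific binding with 2 mM ATP; four-parameter IC50.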

[2] = biological target: T2, pseudo-kinase domain (JH2) of human Wild Type JAK2 (Homo sapiens, UniProt O60674, F794H/W659A/W777A); assay: JAK2 LanthaScreen JH2-WT Binding Assay; conditions: 50 nM Fluorescent JAK2-JH2 Tracer, 1 hour at 25° C.
T2 construct: pseudo-kinase domain (JH2, amino-acids 536-812 with 3 surface mutations W659A, W777A, F794H); His (C); purchased BPS Bioscience 79463; host or cells: baculovirus expression system
T2 sequence (O60674 536-812 W659A/W777A/F794H): as the sequence (O60674 536-812 V617F/W659A/W777A/F794H) above, with F82V counted along it
Summary of the method: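 Biotinylated His-Avi-tagged JAK2 JH2 (aa 536-812, three surface mutations; 0.145 nM) competed with 50 nM fluorescent tracer, using 0.25 nM streptavidin-Tb, in pH 7.5 Tris buffer for 1 h at 25° C.; non-specific binding was set with 2 mM ATP. TR-FRET read; IC50 from four-parameter fit.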

[3] = biological target: T3, catalytic domain (JH1) of human JAK2 (Homo sapiens, UniProt O60674); assay: JAK2 LanthaScreen JH1 Binding Assay; conditions: 50 nM Fluorescent JAK2-JH1 Tracer, 2 hours at 25° C.
T3 construct: catalytic domain (JH1, amino acids 826-1132) of human JAK2; FLAG (N); purchased Carna Biosciences 08-445-20N; host or cells: baculovirus expression system
T3 sequence (O60674 826-1132): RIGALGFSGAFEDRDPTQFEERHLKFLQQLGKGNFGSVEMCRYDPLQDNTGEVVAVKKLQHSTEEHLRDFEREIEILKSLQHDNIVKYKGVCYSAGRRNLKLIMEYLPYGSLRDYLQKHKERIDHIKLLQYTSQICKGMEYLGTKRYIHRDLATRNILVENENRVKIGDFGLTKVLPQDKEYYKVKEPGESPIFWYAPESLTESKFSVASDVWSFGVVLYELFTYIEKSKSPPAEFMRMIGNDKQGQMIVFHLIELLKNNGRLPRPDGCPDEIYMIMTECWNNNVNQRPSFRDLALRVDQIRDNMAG
Summary of the method: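 TR-FRET tracer-displacement binding using N-terminal FLAG-tagged, biotinylated JH1 (aa 826-1132, baculovirus-expressed) at 1.5 nM, with 50 nM fluorescent tracer and 0.5 nM streptavidin-Tb. Buffer was 50 mM Tris pH 7.5, 10 mM MgCl2, 5 mM DTT, 2 h at 25° C. Non-specific binding used 2 mM ATP; IC50 came from four-parameter fits.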

| IC50 [1] [nM] | IC50 [2] [nM] | IC50 [3] [nM] | Compound |
| --- | --- | --- | --- |
| > 2500 | 1000 to 2500 | > 2500 | COc1ccc(Cl)cc1-c1c(-c2ccc(S(=O)(=O)N(C)C)cc2)[nH]c2nc(N)[nH]c(=O)c12 [Example 27, 4-(2-Amino-5-(5-chloro-2-methoxyphenyl)-4-oxo-4,7-dihydro-3H-pyrrolo[2,3-d]pyrimidin-6-yl)-N,N-dimethylbenzene sulfonamide] |
| > 2500 | > 2500 | > 2500 | CC(C)c1cccc(-c2c(-c3ccc(S(=O)(=O)N(C)C)cc3)[nH]c3nc(N)[nH]c(=O)c23)c1 [Example 6, 4-(2-Amino-5-(3-isopropylphenyl)-4-oxo-4,7-dihydro-3H-pyrrolo [2,3-d]pyrimidin-6-yl)-N,N-dimethylbenzene sulfonamide] |
| 100 to 500 | 100 to 500 | > 2500 | CN(C)S(=O)(=O)c1ccc(-c2[nH]c3nc(N)[nH]c(=O)c3c2-c2cccc3c2OCC3)cc1 [Example 41, 4-(2-Amino-5-(2,3-dihydrobenzofuran-7-yl)-4-oxo-4,7-dihydro-3H-pyrrolo[2,3-d]pyrimidin-6-yl)-N,N-dimethylbenzene sulfonamide] |
| 100 to 500 | 100 to 500 | > 2500 | CN(C)S(=O)(=O)c1ccc(-c2[nH]c3nc(N)[nH]c(=O)c3c2-c2cccc(C(=O)O)c2)cc1 [Example 34, 3-(2-amino-6-(4-(N,N-dimethylsulfamoyl)phenyl)-4-oxo-4,7-dihydro-3H-pyrrolo[2,3-d]pyrimidin-5-yl)benzoic acid] |
| 100 to 500 | 100 to 500 | > 2500 | COc1ccc(C)cc1-c1c(-c2ccc(S(=O)(=O)N(C)C)cc2)[nH]c2nc(N)[nH]c(=O)c12 [Example 66, 4-(2-Amino-5-(2-methoxy-5-methylphenyl)-4-oxo-4,7-dihydro-3H-pyrrolo[2,3-d]pyrimidin-6-yl)-N,N-dimethylbenzenesulfonamide] |
| > 2500 | > 2500 | > 2500 | COc1c(Cl)cccc1-c1c(-c2ccc(S(=O)(=O)N(C)C)cc2)[nH]c2nc(N)[nH]c(=O)c12 [Example 40, 4-(2-Amino-5-(3-chloro-2-methoxyphenyl)-4-oxo-4,7-dihydro-3H-pyrrolo[2,3-d]pyrimidin-6-yl)-N,N-dimethylbenzene sulfonamide] |
| 500 to 1000 | 500 to 1000 | > 2500 | CN(C)S(=O)(=O)c1ccc(-c2[nH]c3nc(N)[nH]c(=O)c3c2-c2cccc3c2OCCC3)cc1 [Example 10, 4-(2-Amino-5-(chroman-8-yl)-4-oxo-4,7-dihydro-3H-pyrrolo[2,3-d]pyrimidin-6-yl)-N,N-dimethylbenzene sulfonamide] |
| 500 to 1000 | 500 to 1000 | > 2500 | COc1cccc(F)c1-c1c(-c2ccc(S(=O)(=O)N(C)C)cc2)[nH]c2nc(N)[nH]c(=O)c12 [Example 68, 4-(2-Amino-5-(2-fluoro-6-methoxyphenyl)-4-oxo-4,7-dihydro-3H-pyrrolo[2,3-d]pyrimidin-6-yl)-N,N-dimethylbenzenesulfonamide] |
| 500 to 1000 | 500 to 1000 | > 2500 | CN(C)S(=O)(=O)c1ccc(-c2[nH]c3nc(N)[nH]c(=O)c3c2-c2cccc3c2OCCN3)cc1 [Example 49, 4-(2-Amino-5-(3,4-dihydro-2H-benzo[b][1,4]oxazin-8-yl)-4-oxo-4,7-dihydro-3H-pyrrolo[2,3-d]pyrimidin-6-yl)-N,N-dimethylbenzenesulfonamide] |
| 100 to 500 | 100 to 500 | 100 to 500 | CN(C)S(=O)(=O)c1ccc(-c2[nH]c3nc(N)[nH]c(=O)c3c2C2=CCCC2)cc1 [Example 47, 4-(2-Amino-5-(cyclopent-1-en-1-yl)-4-oxo-4,7-dihydro-3H-pyrrolo[2,3-d]pyrimidin-6-yl)-N,N-dimethylbenzenesulfonamide] |
| 100 to 500 | 100 to 500 | 100 to 500 | Cc1cccc(-c2c(-c3ccc(S(=O)(=O)N(C)C)cc3)[nH]c3nc(N)[nH]c(=O)c23)c1F [Example 67, 4-(2-Amino-5-(2-fluoro-3-methylphenyl)-4-oxo-4,7-dihydro-3H-pyrrolo[2,3-d]pyrimidin-6-yl)-N,N-dimethylbenzenesulfonamide] |
| 1000 to 2500 | 1000 to 2500 | 1000 to 2500 | CN(C)S(=O)(=O)c1ccc(-c2[nH]c3nc(N)[nH]c(=O)c3c2-c2cnn(C3CCS(=O)(=O)C3)c2)cc1 (stereo not drawn) [Example 36, 4-(2-Amino-5-(1-(1,1-dioxidotetrahydrothiophen-3-yl)-1H-pyrazol-4-yl)-4-oxo-4,7-dihydro-3H-pyrrolo[2,3-d]pyrimidin-6-yl)-N,N-dimethylbenzene sulfonamide] |

Further lines, the compound ahead of its results:

| Compound | IC50 [1] [nM] | IC50 [2] [nM] | IC50 [3] [nM] |
| --- | --- | --- | --- |
| COc1ccccc1-c1c(-c2ccc(C(=O)N(C)C)cc2)[nH]c2nc(N)[nH]c(=O)c12 [Example 56, 4-(2-Amino-5-(2-methoxyphenyl)-4-oxo-4,7-dihydro-3H-pyrrolo[2,3-d]pyrimidin-6-yl)-N,N-dimethylbenzamide] | 500 to 1000 | 500 to 1000 | > 2500 |
| CN(C)S(=O)(=O)c1ccc(-c2[nH]c3nc(N)[nH]c(=O)c3c2-c2cccc3ccoc23)cc1 [Example 3, 4-(2-Amino-5-(benzofuran-7-yl)-4-oxo-4,7-dihydro-3H-pyrrolo[2,3-d]pyrimidin-6-yl)-N,N-dimethylbenzenesulfonamide] | 100 to 500 | 100 to 500 | > 2500 |
| Cc1cccc(-c2c(-c3cccc(C(=O)N(C)C)c3)[nH]c3nc(N)[nH]c(=O)c23)c1 [Example 61, 3-(2-Amino-4-oxo-5-(3-tolyl)-4,7-dihydro-3H-pyrrolo [2,3-d]pyrimidin-6-yl)-N,N-dimethyl-benzamide] | 1000 to 2500 | 1000 to 2500 | > 2500 |
| COc1cccc(-c2c(-c3ccc(S(=O)(=O)N(C)C)cc3)[nH]c3nc(N)[nH]c(=O)c23)c1OC [Example 43, 4-(2-Amino-5-(2,3-dimethoxyphenyl)-4-oxo-4,7-dihydro-3H-pyrrolo[2,3-d]pyrimidin-6-yl)-N,N-dimethylbenzene sulfonamide] | 1000 to 2500 | 1000 to 2500 | > 2500 |
| COc1ccc(C(F)(F)F)cc1-c1c(-c2ccc(S(=O)(=O)N(C)C)cc2)[nH]c2nc(N)[nH]c(=O)c12 [Example 24, 4-(2-Amino-5-(2-methoxy-5-(trifluoromethyl)phenyl)-4-oxo-4,7-dihydro-3H-pyrrolo[2,3-d]pyrimidin-6-yl)-N,N-dimethylbenzene sulfonamide] | 1000 to 2500 | 1000 to 2500 | > 2500 |
| Nc1nc2[nH]c(-c3ccccc3)c(-c3cccc(F)c3)c2c(=O)[nH]1 [Example 58, 2-Amino-5-(3-fluorophenyl)-6-phenyl-3,7-dihydro-4H-pyrrolo[2,3-d] pyrimidin-4-one] | 1000 to 2500 | 1000 to 2500 | > 2500 |
| COc1nn(Cc2ccc(C(=O)O)cc2)cc1-c1c(-c2ccc(S(=O)(=O)N(C)C)cc2)[nH]c2nc(N)[nH]c(=O)c12 [Example 50] | ≤ 100 | ≤ 100 | > 2500 |
| Nc1nc2[nH]c(-c3ccccc3)c(-c3ccccc3C(F)(F)F)c2c(=O)[nH]1 [Example 59, 2-Amino-6-phenyl-5-(2-(trifluoro-methyl)phenyl)-3,7-dihydro-4H-pyrrolo[2,3-d] pyrimidin-4-one] | > 2500 | > 2500 | > 2500 |
| COc1ccccc1-c1c(-c2cccc(S(C)(=O)=O)c2)[nH]c2nc(N)[nH]c(=O)c12 [Example 63, 2-Amino-5-(2-methoxyphenyl)-6-(3-(methylsulfonyl)phenyl)-3,7-dihydro-4H-pyrrolo[2,3-d] pyrimidin-4-one] | > 2500 | > 2500 | > 2500 |
| CNC(=O)c1ccc(-c2c(-c3ccc(S(=O)(=O)N(C)C)cc3)[nH]c3nc(N)[nH]c(=O)c23)cc1 [Example 11, 4-(2-Amino-6-(4-(N,N-dimethyl-sulfamoyl)phenyl)-4-oxo-4,7-dihydro-3H-pyrrolo[2,3-d]pyrimidin-5-yl)-N-methylbenzamide] | 100 to 500 | 100 to 500 | 1000 to 2500 |
| CN(C)S(=O)(=O)c1ccc(-c2[nH]c3nc(N)[nH]c(=O)c3c2-c2cnn(Cc3ccccc3)c2)cc1 [Example 30, 4-(2-Amino-5-(1-benzyl-1H-pyrazol-4-yl)-4-oxo-4,7-dihydro-3H-pyrrolo[2,3-d]pyrimidin-6-yl)-N,N-dimethylbenzene sulfonamide] | > 2500 | > 2500 | > 2500 |
| COc1ccccc1-c1c(-c2ccccc2)[nH]c2nc(N)[nH]c(=O)c12 [Example 57, 2-Amino-5-(2-methoxyphenyl)-6-phenyl-3,7-dihydro-4H-pyrrolo [2,3-d]pyrimidin-4-one] | 1000 to 2500 | 1000 to 2500 | > 2500 |
